Laboratory results as given in US5420135A, “Substituted quinoline derivatives” (Smith Kline & French Laboratories Limited, priority 1989, dated 1995).

System: isolated rat osteoclasts
Test: Bone resorption by isolated rat osteoclasts on cortical bone slices
Type: cell-based
Details: Osteoclast, 18 hours, Mean ± SEM, n = 12, control 100 ± 27
Procedure: Bone resorption was measured by the actions of isolated rat osteoclasts on cortical bone slices (Zaidi et al. Quarterly Journal of Experimental Physiology 1988 73:471-485). Newborn Wistar rats were killed by decapitation and their femora and tibiae removed. Osteoclasts were mechanically disaggregated by curetting the bones into medium followed by agitation with a pipette. Osteoclasts were separated from other cells by sedimentation onto bone slices (15 minutes, 37°) after which the slices were removed and gently washed. The bone slices were then incubated in the presence of test compounds (37°, 10% humidified CO2, 18 hours) and fixed with glutaraldehyde. The degree of bone resorption was then assessed by the area of erosions produced by the osteoclasts using scanning electron microscopy. Data were meaned from measurements of 6 bone slices in each of two independent experiments.
Test compounds were dissolved in ethanol which was also added to control incubations (1%) in the absence of compound.

Q: How did the activity at 10 µM (Conc. 10 μM) turn out when `Cc1ccccc1-n1nnc2cnc3ccccc3c21` [Example 2, 1-(2-Methylphenyl)triazolo[4,5-c]quinoline] was run?
A: 49 ± 20%

Q: And the activity at 100 µM (Conc. 100 μM)?
A: 0%
